Results on one compound are retold here after ChEMBL document CHEMBL4190187, “Discovery of pyrazolopyrimidine derivatives as novel inhibitors of ataxia telangiectasia and rad3 related protein (ATR)” (Bioorg Med Chem Lett, 2017).

For assay [1], the system named is Tyrosine-protein kinase ABL1 (Homo sapiens), P00519 [H396P]. Kind of assay: Inhibition of recombinant human Abl H396P mutant (27 to end residues) at 1 uM using EAIYAAPFAKKK as substrate after 40 mins in presence of [gamma-33P]ATP by scintillation counting method.
Assay [2] addresses Serine/threonine-protein kinase A-Raf (Homo sapiens) (UniProt P10398). Kind of assay: Inhibition of recombinant human A-Raf (273 to end residues) at 1 uM using myelin basic protein as substrate after 40 mins in presence of [gamma-33P]ATP by scintillation counting method.
The target in assay [3] is NUAK family SNF1-like kinase 1 (Homo sapiens) (UniProt O60285). Description: Inhibition of recombinant human ARK5 (2 to end residues) at 1 uM using KKKVSRSGLYRSPSMPENLNRPR as substrate after 40 mins in presence of [gamma-33P]ATP by scintillation counting method.
Assay [4] addresses Serine-protein kinase ATM (Homo sapiens) (UniProt Q13315). Description: Inhibition of recombinant full-length human ATM at 1 uM using GST-cMyc-p53 as substrate after 40 mins in presence of [gamma-33P]ATP by scintillation counting method.
Assay [5] concerns the target Serine/threonine-protein kinase ATR (Homo sapiens, UniProt Q13535). Description: Inhibition of human recombinant FLAG-tagged full length ATR expressed in mammalian cell line co-expressing human recombinant cMyc-tagged full length ATRIP at 1 uM using GST-cMyc-p53 as substrate after 40 mins in presence of [gamma-33P]ATP by scintillation counting method.
The target in assay [6] is Tyrosine-protein kinase BTK (Homo sapiens, UniProt Q06187). Description: Inhibition of recombinant full-length human BTK at 1 uM using KVEKIGEGTYGVVYK as substrate after 40 mins in presence of [gamma-33P]ATP by scintillation counting method.
Assay [7] has as its target Calcium/calmodulin-dependent protein kinase type II subunit gamma (Homo sapiens) (UniProt Q13555). Kind of assay: Inhibition of recombinant human CAMK2gamma (1 to 330 residues) at 1 uM using […] after 40 mins in presence of [gamma-33P]ATP by scintillation counting method.
In assay [8] the test system is Mast/stem cell growth factor receptor Kit (Homo sapiens), P10721 [D816H]. Description: Inhibition of recombinant human cKit D816H mutant (544 to end residues) at 1 uM using GGMEDIYFEFMGGKKK as substrate after 40 mins in presence of [gamma-33P]ATP by scintillation counting method.
Assay [9] addresses Ephrin type-A receptor 7 (Homo sapiens) (UniProt Q15375). Description: Inhibition of recombinant human EPHA7 (613 to 909 residues) at 1 uM using KTFCGTPEYLAPEVRREPRILSEEEQEMFRDFDYIADWC as substrate after 40 mins in presence of [gamma-33P]ATP by scintillation counting method.
For assay [10], the target named is Ephrin type-B receptor 1 (Homo sapiens) (UniProt P54762). Description: Inhibition of recombinant human EPHB1 (564 to end residues) at 1 uM using KVEKIGEGTYGVVYK as substrate after 40 mins in presence of [gamma-33P]ATP by scintillation counting method.
Assay [11] concerns the target Ephrin type-B receptor 2 (Homo sapiens) (UniProt P29323). Kind of assay: Inhibition of recombinant human EPHB2 (560 to end residues) at 1 uM using poly(Glu,Tyr) 4:1 as substrate after 40 mins in presence of [gamma-33P]ATP by scintillation counting method.
The target in assay [12] is G protein-coupled receptor kinase 3 (Homo sapiens) (UniProt P35626). Kind of assay: Inhibition of recombinant full-length human GRK3 at 1 uM using casein as substrate after 40 mins in presence of [gamma-33P]ATP by scintillation counting method.
Assay [13] addresses Tyrosine-protein kinase Lyn (Homo sapiens) (UniProt P07948). Kind of assay: Inhibition of recombinant full-length human Lyn at 1 uM using poly(Glu,Tyr) 4:1 as substrate after 40 mins in presence of [gamma-33P]ATP by scintillation counting method.
In assay [14] the target is Mitogen-activated protein kinase kinase kinase 9 (Homo sapiens) (UniProt P80192). Kind of assay: Inhibition of recombinant human MLK1 (134 to 414 residues) at 1 uM using casein as substrate after 40 mins in presence of [gamma-33P]ATP by scintillation counting method.
For assay [15], the target named is Serine/threonine-protein kinase 26 (Homo sapiens) (UniProt Q9P289). Kind of assay: Inhibition of recombinant human MST4 (4 to 304 residues) at 1 uM using RLGRDKYKTLRQIRQ as substrate after 40 mins in presence of [gamma-33P]ATP by scintillation counting method.
Chain of Serine/threonine-protein kinase 26 (Homo sapiens) (Q9P289 2-416 limits assumed): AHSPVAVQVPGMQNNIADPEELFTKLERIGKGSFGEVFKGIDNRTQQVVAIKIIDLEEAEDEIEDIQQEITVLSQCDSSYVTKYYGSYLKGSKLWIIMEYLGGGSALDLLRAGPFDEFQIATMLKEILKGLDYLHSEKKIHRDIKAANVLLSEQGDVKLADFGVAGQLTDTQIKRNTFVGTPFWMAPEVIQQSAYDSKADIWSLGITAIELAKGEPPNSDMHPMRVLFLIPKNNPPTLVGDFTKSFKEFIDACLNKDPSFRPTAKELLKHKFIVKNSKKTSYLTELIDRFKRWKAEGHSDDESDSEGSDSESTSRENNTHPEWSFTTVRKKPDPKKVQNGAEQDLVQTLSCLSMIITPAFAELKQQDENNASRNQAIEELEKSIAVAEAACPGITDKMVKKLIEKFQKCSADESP
Assay [16] has as its target NUAK family SNF1-like kinase 2 (Homo sapiens) (UniProt Q9H093). Description: Inhibition of recombinant full-length human NUAK2 at 1 uM using KKKVSRSGLYRSPSMPENLNRPR as substrate after 40 mins in presence of [gamma-33P]ATP by scintillation counting method.
In assay [17] the target is Eukaryotic translation initiation factor 2-alpha kinase 3 (Homo sapiens) (UniProt Q9NZJ5). Kind of assay: Inhibition of recombinant human PEK (536 to end residues) at 1 uM using RSRSRSRSRSRSRSR as substrate after 40 mins in presence of [gamma-33P]ATP by scintillation counting method.
The target of assay [18] is Serine/threonine-protein kinase SIK3 (Homo sapiens) (UniProt Q9Y2K2). Kind of assay: Inhibition of recombinant human SIK3 (1 to 307 residues) at 1 uM using KKKVSRSGLYRSPSMPENLNRPR as substrate after 40 mins in presence of [gamma-33P]ATP by scintillation counting method.
For assay [19], the target named is High affinity nerve growth factor receptor (Homo sapiens) (UniProt P04629). Kind of assay: Inhibition of recombinant human TrkA (440 to end residues) at 1 uM using KKKSPGEYVNIEFG as substrate after 40 mins in presence of [gamma-33P]ATP by scintillation counting method.
In assay [20] the target is BDNF/NT-3 growth factors receptor (Homo sapiens) (UniProt Q16620). Description: Inhibition of recombinant human TrkB (455 to end residues) at 1 uM using poly(Glu,Tyr) 4:1 as substrate after 40 mins in presence of [gamma-33P]ATP by scintillation counting method.
Chain of BDNF/NT-3 growth factors receptor (Homo sapiens) (Q16620 32-822 limits assumed): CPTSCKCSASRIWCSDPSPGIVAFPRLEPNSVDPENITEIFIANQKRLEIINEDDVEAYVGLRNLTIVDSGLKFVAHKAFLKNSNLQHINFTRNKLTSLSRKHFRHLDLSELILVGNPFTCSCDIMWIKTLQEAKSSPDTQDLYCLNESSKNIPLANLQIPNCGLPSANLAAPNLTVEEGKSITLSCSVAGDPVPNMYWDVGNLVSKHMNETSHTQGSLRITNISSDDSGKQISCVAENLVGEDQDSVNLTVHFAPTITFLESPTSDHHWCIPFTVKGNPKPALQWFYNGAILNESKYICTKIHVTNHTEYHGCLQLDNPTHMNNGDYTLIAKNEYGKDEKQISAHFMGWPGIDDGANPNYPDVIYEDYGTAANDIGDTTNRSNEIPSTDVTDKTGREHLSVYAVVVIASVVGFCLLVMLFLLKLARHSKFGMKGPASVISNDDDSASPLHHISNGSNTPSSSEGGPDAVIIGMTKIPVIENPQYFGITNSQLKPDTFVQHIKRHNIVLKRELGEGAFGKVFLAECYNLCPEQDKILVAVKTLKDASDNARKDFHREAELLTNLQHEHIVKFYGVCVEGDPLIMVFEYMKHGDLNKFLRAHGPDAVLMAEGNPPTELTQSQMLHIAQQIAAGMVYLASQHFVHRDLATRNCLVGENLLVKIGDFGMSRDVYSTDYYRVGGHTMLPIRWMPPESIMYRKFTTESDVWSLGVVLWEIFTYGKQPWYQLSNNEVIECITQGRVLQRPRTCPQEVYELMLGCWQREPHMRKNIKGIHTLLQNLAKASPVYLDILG
Assay [21] deals with Dual specificity protein kinase TTK (Homo sapiens) (UniProt P33981). Kind of assay: Inhibition of recombinant full-length human TTK at 1 uM using myelin basic protein as substrate after 40 mins in presence of [gamma-33P]ATP by scintillation counting method.
For assay [22], the target named is Tyrosine-protein kinase TXK (Homo sapiens) (UniProt P42681). Kind of assay: Inhibition of recombinant human Txk (256 to end residues) at 1 uM using GEEPLYWSFPAKKK as substrate after 40 mins in presence of [gamma-33P]ATP by scintillation counting method.
Chain of Tyrosine-protein kinase TXK (Homo sapiens) (P42681 whole entry): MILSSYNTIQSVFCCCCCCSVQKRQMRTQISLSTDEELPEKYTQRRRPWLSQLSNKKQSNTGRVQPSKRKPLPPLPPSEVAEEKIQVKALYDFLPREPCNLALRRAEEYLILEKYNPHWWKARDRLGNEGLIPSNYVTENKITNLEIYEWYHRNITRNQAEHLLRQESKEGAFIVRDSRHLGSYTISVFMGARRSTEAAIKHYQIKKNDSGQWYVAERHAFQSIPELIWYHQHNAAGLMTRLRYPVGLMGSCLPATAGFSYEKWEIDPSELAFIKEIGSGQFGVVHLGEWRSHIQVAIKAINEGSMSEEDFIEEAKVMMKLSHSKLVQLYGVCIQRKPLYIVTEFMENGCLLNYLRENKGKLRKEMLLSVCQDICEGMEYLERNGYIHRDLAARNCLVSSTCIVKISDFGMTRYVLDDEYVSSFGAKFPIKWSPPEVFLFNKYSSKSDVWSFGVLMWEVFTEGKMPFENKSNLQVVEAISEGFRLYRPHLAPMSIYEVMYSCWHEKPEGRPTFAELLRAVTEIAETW
In assay [23] the target is Non-receptor tyrosine-protein kinase TYK2 (Homo sapiens) (UniProt P29597). Kind of assay: Inhibition of recombinant human TYK2 (875 to end residues) at 1 uM using GGMEDIYFEFMGGKKK as substrate after 40 mins in presence of [gamma-33P]ATP by scintillation counting method.
Chain of Non-receptor tyrosine-protein kinase TYK2 (Homo sapiens) (P29597 whole entry): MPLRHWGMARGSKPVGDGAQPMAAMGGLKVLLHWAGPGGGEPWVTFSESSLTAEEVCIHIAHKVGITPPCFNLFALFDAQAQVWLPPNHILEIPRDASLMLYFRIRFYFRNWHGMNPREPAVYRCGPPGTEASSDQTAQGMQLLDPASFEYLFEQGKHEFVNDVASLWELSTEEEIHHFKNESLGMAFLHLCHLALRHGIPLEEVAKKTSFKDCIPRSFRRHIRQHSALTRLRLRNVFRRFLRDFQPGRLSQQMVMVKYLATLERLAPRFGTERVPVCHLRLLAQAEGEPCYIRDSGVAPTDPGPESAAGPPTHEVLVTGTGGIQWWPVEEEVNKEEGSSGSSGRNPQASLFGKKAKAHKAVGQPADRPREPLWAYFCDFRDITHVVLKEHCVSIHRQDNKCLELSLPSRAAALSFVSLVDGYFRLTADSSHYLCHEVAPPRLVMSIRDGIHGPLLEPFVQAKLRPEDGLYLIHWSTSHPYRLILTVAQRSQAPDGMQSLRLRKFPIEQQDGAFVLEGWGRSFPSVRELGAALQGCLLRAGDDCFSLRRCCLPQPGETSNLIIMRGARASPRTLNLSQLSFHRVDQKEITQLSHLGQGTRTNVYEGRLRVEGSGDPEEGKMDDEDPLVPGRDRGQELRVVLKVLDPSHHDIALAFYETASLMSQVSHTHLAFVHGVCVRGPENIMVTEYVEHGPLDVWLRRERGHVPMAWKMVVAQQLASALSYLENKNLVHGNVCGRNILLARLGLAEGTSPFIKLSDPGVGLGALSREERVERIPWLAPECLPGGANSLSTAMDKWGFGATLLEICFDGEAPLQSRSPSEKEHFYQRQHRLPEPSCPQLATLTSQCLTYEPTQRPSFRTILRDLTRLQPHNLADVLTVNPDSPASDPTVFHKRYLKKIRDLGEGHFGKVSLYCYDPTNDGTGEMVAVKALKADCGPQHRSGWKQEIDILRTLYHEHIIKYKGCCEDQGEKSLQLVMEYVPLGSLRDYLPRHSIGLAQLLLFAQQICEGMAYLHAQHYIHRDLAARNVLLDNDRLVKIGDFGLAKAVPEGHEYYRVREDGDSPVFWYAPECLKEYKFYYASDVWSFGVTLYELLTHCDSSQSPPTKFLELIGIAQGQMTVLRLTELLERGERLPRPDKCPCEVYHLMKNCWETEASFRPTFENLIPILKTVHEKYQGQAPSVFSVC

Chain of Ephrin type-A receptor 7 (Homo sapiens) (Q15375 28-998 limits assumed): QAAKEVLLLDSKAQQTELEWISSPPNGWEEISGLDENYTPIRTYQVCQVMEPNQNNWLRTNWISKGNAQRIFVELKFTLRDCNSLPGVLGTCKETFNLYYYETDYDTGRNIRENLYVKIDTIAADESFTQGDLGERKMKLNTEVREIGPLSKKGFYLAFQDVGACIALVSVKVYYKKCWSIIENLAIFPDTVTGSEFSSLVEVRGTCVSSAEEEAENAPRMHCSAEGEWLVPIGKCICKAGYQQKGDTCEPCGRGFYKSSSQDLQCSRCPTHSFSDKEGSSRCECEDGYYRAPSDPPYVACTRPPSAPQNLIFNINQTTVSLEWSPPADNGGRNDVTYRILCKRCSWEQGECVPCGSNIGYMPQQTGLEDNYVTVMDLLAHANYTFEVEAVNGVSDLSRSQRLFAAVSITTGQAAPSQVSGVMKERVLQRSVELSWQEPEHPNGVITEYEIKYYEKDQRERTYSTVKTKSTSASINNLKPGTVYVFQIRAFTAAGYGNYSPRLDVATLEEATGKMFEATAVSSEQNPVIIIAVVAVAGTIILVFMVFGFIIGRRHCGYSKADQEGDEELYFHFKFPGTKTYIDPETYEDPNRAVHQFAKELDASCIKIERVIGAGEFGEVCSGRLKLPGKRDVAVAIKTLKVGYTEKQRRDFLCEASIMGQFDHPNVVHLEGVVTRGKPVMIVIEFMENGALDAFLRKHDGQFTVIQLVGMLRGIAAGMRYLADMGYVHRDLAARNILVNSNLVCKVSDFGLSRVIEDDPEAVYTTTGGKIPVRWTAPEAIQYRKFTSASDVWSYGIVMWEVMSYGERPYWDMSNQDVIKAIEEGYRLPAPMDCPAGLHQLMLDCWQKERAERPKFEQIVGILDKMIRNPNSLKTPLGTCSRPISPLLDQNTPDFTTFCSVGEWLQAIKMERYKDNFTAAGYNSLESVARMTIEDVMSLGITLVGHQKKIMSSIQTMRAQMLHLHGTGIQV
Chain of Calcium/calmodulin-dependent protein kinase type II subunit gamma (Homo sapiens) (Q13555 whole entry, the tested form may be a part): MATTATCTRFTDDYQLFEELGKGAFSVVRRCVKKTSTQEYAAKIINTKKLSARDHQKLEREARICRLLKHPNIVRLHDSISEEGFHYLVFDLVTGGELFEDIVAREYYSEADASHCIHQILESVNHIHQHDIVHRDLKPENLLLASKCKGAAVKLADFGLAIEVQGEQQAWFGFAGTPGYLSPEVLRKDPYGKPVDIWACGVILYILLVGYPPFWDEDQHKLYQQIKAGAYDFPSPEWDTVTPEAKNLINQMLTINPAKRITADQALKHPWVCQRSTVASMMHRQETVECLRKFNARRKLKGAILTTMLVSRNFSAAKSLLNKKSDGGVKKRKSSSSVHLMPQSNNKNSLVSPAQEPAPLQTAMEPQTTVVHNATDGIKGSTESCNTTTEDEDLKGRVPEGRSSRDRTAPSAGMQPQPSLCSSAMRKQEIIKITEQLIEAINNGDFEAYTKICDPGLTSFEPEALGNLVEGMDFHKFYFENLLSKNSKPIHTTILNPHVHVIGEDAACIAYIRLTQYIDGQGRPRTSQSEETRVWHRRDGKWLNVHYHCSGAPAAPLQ
Chain of NUAK family SNF1-like kinase 2 (Homo sapiens) (Q9H093 whole entry): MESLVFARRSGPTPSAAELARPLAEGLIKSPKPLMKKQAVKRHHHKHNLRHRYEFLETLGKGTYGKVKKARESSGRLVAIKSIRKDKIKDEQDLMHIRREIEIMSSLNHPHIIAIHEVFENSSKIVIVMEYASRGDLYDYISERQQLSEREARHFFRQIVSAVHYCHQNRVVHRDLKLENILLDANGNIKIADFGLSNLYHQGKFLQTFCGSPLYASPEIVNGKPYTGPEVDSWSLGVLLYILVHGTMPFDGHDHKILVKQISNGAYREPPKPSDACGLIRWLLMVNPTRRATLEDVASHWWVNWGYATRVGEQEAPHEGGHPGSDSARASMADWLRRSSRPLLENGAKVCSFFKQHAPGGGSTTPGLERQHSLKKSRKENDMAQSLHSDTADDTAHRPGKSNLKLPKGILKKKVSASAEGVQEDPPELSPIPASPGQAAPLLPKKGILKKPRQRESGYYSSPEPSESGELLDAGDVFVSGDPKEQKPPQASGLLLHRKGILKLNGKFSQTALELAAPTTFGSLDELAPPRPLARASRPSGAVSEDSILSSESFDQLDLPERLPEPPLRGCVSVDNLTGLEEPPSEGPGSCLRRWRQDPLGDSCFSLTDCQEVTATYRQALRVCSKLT

For `CS(=O)(=O)c1ccc(-n2nc(-c3cnc4[nH]ccc4c3)c3c(N)ncnc32)cc1`, the inhibition in assay [1] was 79%; in assay [2], -10%; in assay [3], 15%; in [4] it was 28%; in [5] it was 96%; in assay [6] it was 25%. The inhibition in assay [7] stood at 6%; in assay [8], 85%; in assay [9] it was 0%; in assay [10], 22%; in assay [11], 2%; in assay [12], 1%. The inhibition in assay [13] was 40%; in assay [14] it was 13%; in assay [15], -3%; in [16], 18%; in [17], 13%; in [18], 20%. Also, the inhibition was 2% in [19]; 4% in assay [20]; -6% in [21]; 78% in [22]; 8% in assay [23].

As usually defined, the inhibition is the relative decrease from the control value, in per cent.
